In BindingDB's records for doi:10.7270/Q2QJ7FRJ (Nmmlsc, 2009) one finds EC50 data, which are given here for 65 compounds.

This assay deals with Cell division control protein 42 homolog (Homo sapiens, UniProt P60953). Nature of the assay: inhibition of fluorescent GTP binding to wildtype Cdc42 – biochemical, pyrazoline analogs, multiplex bead flow cytometry, Ki, SAR follow-up (AID 2019). For orientation: Flow cytometry measures light scatter and fluorescence of single cells or particles in a stream.
[1] abbreviates: inactive by the depositor's call.

Sequence of Cell division control protein 42 homolog (P60953 whole entry): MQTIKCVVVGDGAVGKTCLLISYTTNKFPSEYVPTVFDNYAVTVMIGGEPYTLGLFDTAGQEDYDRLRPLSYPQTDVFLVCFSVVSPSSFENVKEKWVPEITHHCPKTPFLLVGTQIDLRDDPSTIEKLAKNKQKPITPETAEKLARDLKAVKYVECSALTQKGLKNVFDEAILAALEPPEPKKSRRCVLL

By EC50 is commonly meant the concentration at which the effect is half-maximal. The compound `Brc1ccc(N2N=C(c3ccccc3)CC2c2ccccc2)cc1` (stereo not given) had an EC50 under setting [1] of 30 µM.
As for `COc1ccc(C2CC(c3cccc(C)c3)=NN2c2ccc(S(N)(=O)=O)cc2)cc1` (stereo not given) [UNM-0000306153], a half-maximal response (EC50) required 3.77 µM.
Regarding `Clc1cccc(N2N=C(c3ccccc3)CC2c2ccccc2)c1` (stereo not given), under setting [1], the 50% effective concentration (EC50) amounted to 30 µM.
Same read-out and setting: the figure for `Cc1ccccc1[N+]1=N[C-](c2ccccc2)CC1c1cccc([N+](=O)[O-])c1` (stereo not given) [UNM-0000305854] is 30 µM; for `COc1ccc(C2CC(c3ccccc3)=NN2c2ccc(Cl)c(C(=O)O)c2)cc1OC` (stereo not given) [2-chloro-5-[3-(3,4-dimethoxyphenyl)-5-phenyl-3,4-dihydropyrazol-2-yl]benzoic acid] it is 30 µM.
As for `Cc1cccc(N2N=C(c3ccccc3)CC2c2ccccc2)c1` (stereo not given) [UNM-0000305835], the 50% effective concentration (EC50) under setting [1] amounted to 30 µM.
The same measure, in the same setting: the figure for `COc1ccc(C2=NN(c3ccc(Cl)cc3)C(c3ccccc3F)C2)cc1` (stereo not given) [UNM-0000305863] is 30 µM.
As to `COc1ccc(C2CC(c3ccccc3)=NN2c2ccc(C(=O)O)cc2)cc1` (stereo not given) [UNM-0000306085], a half-maximal effect under setting [1] (EC50) was put at 30 µM.
Same read-out and setting: the figure for `CN(C)c1ccc(C2CC(c3ccc(F)cc3)=NN2c2ccccc2)cc1` (stereo not given) [UNM-0000305866] is 30 µM; for `COc1ccc(C2CC(c3ccc(N(C)C)cc3)=NN2c2ccc(S(N)(=O)=O)cc2)cc1` (stereo not given) [KUC103422N] it is 3.37 µM.
Same read-out and setting: the figure for `COc1ccc(C2CC(c3ccccc3C)=NN2c2ccc(S(N)(=O)=O)cc2)cc1` (stereo not given) [UNM-0000306152] is 4.13 µM.
`COc1ccc(C2CC(c3ccccc3F)=NN2c2ccc(S(N)(=O)=O)cc2)cc1` (stereo not given) [UNM-0000306110] came in with a concentration for a half-maximal effect (EC50) of 2.79 µM.
Turning to `COc1ccc(C2CC(c3ccc(F)cc3)=NN2c2ccc(S(N)(=O)=O)cc2)cc1` (stereo not given) [4-[5-(4-fluorophenyl)-3-(4-methoxyphenyl)-3,4-dihydropyrazol-2-yl]benzenesulfonamide], the EC50 was 4.26 µM. Against the preceding compound, the EC50 is about 1.5-fold higher.
`CN(C)c1ccc(C2CC(c3ccc(Cl)cc3)=NN2c2ccccc2)cc1` (stereo not given) [UNM-0000305847]: the EC50 under setting [1] was 30 µM.
`CC(=O)Oc1ccc(C2=NN(c3ccccc3)C(c3ccccc3)C2)cc1` (stereo not given) had an EC50 under setting [1] of 30 µM. This counts as double-digit micromolar.
Still for that read-out and setting: the figure for `COc1ccc(C2CC(C)=NN2c2ccc(S(N)(=O)=O)cc2)cc1` (stereo not given) [4-[3-(4-methoxyphenyl)-5-methyl-3,4-dihydropyrazol-2-yl]benzenesulfonamide] is 30 µM.
`COc1ccc(C2CC(c3cccc(Br)c3)=NN2c2ccc(S(N)(=O)=O)cc2)cc1` (stereo not given) [UNM-0000306113] displayed an EC50 of 2.07 µM.
As for `COc1ccc(C2CC(c3ccc(F)cc3)=NN2c2ccccc2)cc1OC` (stereo not given) [UNM-0000305864], it took 30 µM to reach a half-maximal effect under setting [1] (EC50).
Same read-out and setting: with `Clc1ccc(N2N=C(c3ccccc3)CC2c2ccccc2)cc1` (stereo not given) the figure was 30 µM.
The same measure, in the same setting: with `Fc1ccccc1C1CC(c2ccc(Br)cc2)=NN1c1ccc(Br)cc1` (stereo not given) [2,5-bis(4-bromophenyl)-3-(2-fluorophenyl)-3,4-dihydropyrazole] the figure was 30 µM.
`COc1ccc(C2CC(c3ccncc3)=NN2c2ccc(S(N)(=O)=O)cc2)cc1` (stereo not given) showed an EC50 under setting [1] of 30 µM.
On the same count and under the same terms, with `O=S(=O)(c1ccc(N2N=C(c3ccccc3)CC2c2ccccc2)cc1)C(F)F` (stereo not given) the figure was 0.231 µM.
Same read-out and setting: with `COc1ccc(C2CC(c3ccccc3C(F)(F)F)=NN2c2ccc(S(N)(=O)=O)cc2)cc1` (stereo not given) [KUC103474N] the figure was 30 µM; with `COc1ccc(C2CC(c3cccc(N(C)C)c3)=NN2c2ccc(S(N)(=O)=O)cc2)cc1` (stereo not given), 30 µM.
With `COc1ccc(C2CC(c3cccc(Cl)c3)=NN2c2ccc(S(N)(=O)=O)cc2)cc1` (stereo not given) [UNM-0000306134], the midpoint of the response, the EC50, lay at 1.3 µM.
Consider `COc1ccc(C2=NN(c3ccccc3)C(c3ccc(OC)c(OC)c3C(=O)O)C2)cc1` (stereo not given) [UNM-0000305848], for which the EC50 under setting [1] was determined as 30 µM.
The same measure, in the same setting: with `FC(F)(F)c1ccccc1C1CC(c2ccc(Br)cc2)=NN1c1ccccc1` (stereo not given) [5-(4-bromophenyl)-2-phenyl-3-[2-(trifluoromethyl)phenyl]-3,4-dihydropyrazole] the figure was 30 µM.
Still for that read-out and setting: with `COc1ccc(C2CC(C(C)(C)C)=NN2c2ccc(S(N)(=O)=O)cc2)cc1` (stereo not given) [KUC103450N] the figure was 30 µM.
Still for that read-out and setting: with `COc1ccc(-c2cc(-c3ccccc3)nn2-c2ccc(S(N)(=O)=O)cc2)cc1` [4-[5-(4-methoxyphenyl)-3-phenylpyrazol-1-yl]benzenesulfonamide] the figure was 5.05 µM.
As for `NS(=O)(=O)c1ccc(N2N=C(c3ccccc3)CC2c2ccc(Br)cc2)cc1` (stereo not given) [UNM-0000306160], the half-maximal effective concentration (EC50) was 1.07 µM.
Under setting [1], `O=S(=O)(c1ccc(N2N=C(c3ccc(Br)cc3)CC2c2ccccc2)cc1)C(F)F` (stereo not given) [5-(4-bromophenyl)-2-[4-(difluoromethylsulfonyl)phenyl]-3-phenyl-3,4-dihydropyrazole] showed a concentration for a half-maximal effect (EC50) of 30 µM.
Still for that read-out and setting: the figure for `Cc1onc(-c2ccccc2)c1-c1ccc(S(N)(=O)=O)cc1` is 30 µM.
As to `COc1ccc(C2CC(c3ccc(F)cc3)=NN2c2cccc(F)c2)cc1OC` (stereo not given), it took 21 µM to reach a half-maximal effect (EC50).
Under setting [1], `COc1ccc(C2=NN(c3cccc(F)c3)C(c3ccc(Cl)cc3)C2)cc1` (stereo not given) [3-(4-chlorophenyl)-2-(3-fluorophenyl)-5-(4-methoxyphenyl)-3,4-dihydropyrazole] registered a half-maximal effective concentration (EC50) of 30 µM.
On the same count and under the same terms, the figure for `COc1ccc(C2=NN(c3ccccc3F)C(c3ccc(F)cc3)C2)cc1` (stereo not given) [UNM-0000305860] is 30 µM.
Still for that read-out and setting: with `COc1ccc(C2C[C-](c3ccccc3)N=[N+]2c2ccc([N+](=O)[O-])cc2)cc1` (stereo not given) [3-(4-methoxyphenyl)-2-(4-nitrophenyl)-5-phenyl-3,4-dihydropyrazole] the figure was 30 µM; with `NS(=O)(=O)c1ccc(N2N=C(c3ccccc3)CC2c2ccccc2)cc1` (stereo not given) [4-(3,5-diphenyl-3,4-dihydropyrazol-2-yl)benzenesulfonamide], 30 µM.
Consider `COc1ccc(C2CC(c3ccccc3Br)=NN2c2ccc(S(N)(=O)=O)cc2)cc1` (stereo not given) [UNM-0000306112], for which the EC50 turned out to be 3.36 µM.
Regarding `COc1ccc(C2=NN(c3ccc(Cl)c(Cl)c3)C(c3ccc(OC)cc3)C2)cc1` (stereo not given) [2-(3,4-dichlorophenyl)-3,5-bis(4-methoxyphenyl)-3,4-dihydropyrazole], the response under setting [1] was half-maximal at 30 µM (EC50).
Compound `NS(=O)(=O)c1ccc(N2N=C(c3ccc(Cl)cc3)CC2c2ccccc2)cc1` (stereo not given) displayed an EC50 of 3.32 µM. In other words, the single-digit micromolar range.
Compound `CN(C)c1ccc(C2CC(c3ccccc3)=NN2c2ccccc2)cc1` (stereo not given) [4-(2,5-diphenyl-3,4-dihydropyrazol-3-yl)-N,N-dimethylaniline] yielded an EC50 under setting [1] of 30 µM.
On to `COc1ccc(C2CC(c3cccc(C(F)(F)F)c3)=NN2c2ccc(S(N)(=O)=O)cc2)cc1` (stereo not given), for which a half-maximal effect (EC50) was put at 3.11 µM.
Compound `COc1ccc(C2CC(C3CCCCC3)=NN2c2ccc(S(N)(=O)=O)cc2)cc1` (stereo not given) [4-[5-cyclohexyl-3-(4-methoxyphenyl)-3,4-dihydropyrazol-2-yl]benzenesulfonamide] yielded an EC50 under setting [1] of 30 µM.
On the same count and under the same terms, with `Cc1ccc(-c2cc(C(F)(F)F)nn2-c2ccc(S(N)(=O)=O)cc2)cc1` [Celecoxib] the figure was 30 µM.
The same measure, in the same setting: with `Fc1ccc(C2=NN(c3cccc(Br)c3)C(c3ccccc3)C2)cc1` (stereo not given) [2-(3-bromophenyl)-5-(4-fluorophenyl)-3-phenyl-3,4-dihydropyrazole] the figure was 30 µM.
For the compound `COc1ccc(C2CC(c3ccc(Br)cc3)=NN2c2ccc(S(N)(=O)=O)cc2)cc1` (stereo not given) [UNM-0000306138], the half-maximal effective concentration (EC50) was 2.99 µM. This counts as single-digit micromolar.
As for `COc1ccc(C2CC(c3ccc(C(F)(F)F)cc3)=NN2c2ccc(S(N)(=O)=O)cc2)cc1` (stereo not given) [4-[3-(4-methoxyphenyl)-5-[4-(trifluoromethyl)phenyl]-3,4-dihydropyrazol-2-yl]benzenesulfonamide], under setting [1], the EC50 came to 30 µM.
On the same count and under the same terms, the figure for `O=C(O)c1ccc(N2N=C(c3ccccc3)CC2c2ccccc2)cc1` (stereo not given) is 30 µM; for `COc1ccc(C2CC(c3ccc(Br)cc3)=NN2c2ccccc2Cl)cc1` (stereo not given) [UNM-0000305832] it is 30 µM.
Same read-out and setting: the figure for `CN(C)c1ccc(C2C[C-](c3ccccc3)N=[N+]2c2ccc([N+](=O)[O-])cc2)cc1` (stereo not given) is 30 µM.
On the same count and under the same terms, with `COc1ccc(C2CC(c3ccccc3)=NN2c2ccc(Cl)c(C(=O)O)c2)cc1` (stereo not given) the figure was 30 µM; with `O=[N+]([O-])c1cccc(C2C[C-](c3ccc(F)cc3)N=[N+]2c2ccccc2)c1` (stereo not given) [5-(4-fluorophenyl)-3-(3-nitrophenyl)-2-phenyl-3,4-dihydropyrazole], 30 µM; with `CCc1ccc(C2=NN(c3ccc(S(N)(=O)=O)cc3)C(c3ccc(F)cc3)C2)cc1` (stereo not given), 30 µM.
`NS(=O)(=O)c1ccc(N2N=C(c3ccccc3)CC2c2ccccc2Br)cc1` (stereo not given) [4-[3-(2-bromophenyl)-5-phenyl-3,4-dihydropyrazol-2-yl]benzenesulfonamide] gave a 50% effective concentration (EC50) under setting [1] of 30 µM.
On the same count and under the same terms, with `COc1ccccc1C1CC(c2ccccc2)=NN1c1ccccc1` (stereo not given) the figure was 30 µM; with `COc1ccccc1N1N=C(c2ccccc2)CC1c1ccccc1` (stereo not given) [UNM-0000305855], 30 µM.
Regarding `O=[N+]([O-])c1ccc([N+]2=N[C-](c3ccccc3)CC2c2ccc(O)cc2)cc1` (stereo not given) [UNM-0000305838], the EC50 under setting [1] stood at 30 µM.
The same measure, in the same setting: the figure for `CN(C)c1ccc(C2CC(c3ccc(Br)cc3)=NN2c2ccccc2)cc1` (stereo not given) [UNM-0000305846] is 30 µM; for `FC(F)(F)c1cccc(N2N=C(c3ccc(Cl)cc3)CC2c2ccccc2Cl)c1` (stereo not given) [UNM-0000305859] it is 30 µM; for `NS(=O)(=O)c1ccc(N2N=C(c3ccc(Br)cc3)CC2c2ccc(F)cc2)cc1` (stereo not given) [4-[5-(4-bromophenyl)-3-(4-fluorophenyl)-3,4-dihydropyrazol-2-yl]benzenesulfonamide] it is 30 µM.
`COc1ccc(C2CC(c3cccnc3)=NN2c2ccc(S(N)(=O)=O)cc2)cc1` (stereo not given) registered a concentration for a half-maximal effect (EC50) of 9.51 µM. This counts as single-digit micromolar.
Regarding `COc1ccc(C2CC(c3ccc(F)cc3)=NN2c2cc(Cl)ccc2Cl)cc1` (stereo not given) [2-(2,5-dichlorophenyl)-5-(4-fluorophenyl)-3-(4-methoxyphenyl)-3,4-dihydropyrazole], it took 30 µM to reach a half-maximal effect under setting [1] (EC50).
`COc1ccc(C2CC(c3ccc(C)cc3)=NN2c2ccc(S(N)(=O)=O)cc2)cc1` (stereo not given) registered an EC50 of 2.21 µM.
`COc1ccc(C2CC(c3ccccc3)=NN2c2cccc(S(N)(=O)=O)c2)cc1` (stereo not given) [3-[3-(4-methoxyphenyl)-5-phenyl-3,4-dihydropyrazol-2-yl]benzenesulfonamide] showed an EC50 under setting [1] of 30 µM.
Compound `NS(=O)(=O)c1ccc(N2N=C(c3ccccc3)CC2c2ccc(Cl)cc2)cc1` (stereo not given) [4-[3-(4-chlorophenyl)-5-phenyl-3,4-dihydropyrazol-2-yl]benzenesulfonamide] displayed an EC50 of 2.76 µM.
